In data set [1] the test system is CMV. Briefly: CMV plaque reduction assay in HFF monolayers. It counts as cell-based, human cytomegalovirus. From the text: The CMV strains used were: AD169 (obtained from the American Type Culture Collection), and TB40/E. In addition, low-passage clinical isolates CI704, and CI893, recovered at the Hadassah Clinical Virology Laboratory from the urine of congenitally-infected newborns, and propagated for 3-5 passages, were used for some experiments. All CMV strains were propagated and titered in human foreskin fibroblasts (HFF) cells. Cell-free virus stocks and cell-associated clinical isolates were maintained at −70° C. Viral stocks were titered by serial 10-fold dilution in 24-well tissue culture plates containing HFF monolayers overlaid with agarose-medium. After incubation for 7 to 10 days, plaques were enumerated, and virus titer was determined as plaque forming units (PFU) per milliliter (ml). Stocks of artemisone, artemiside, RW177, compound IX, and artesunate were freshly prepared at 10 mM concentration in DMSO. Ganciclovir, stored as 10 mM stock was used in comparative assays.
Cell monolayers were inoculated in 24-well culture plates with 0.2 ml of virus suspension containing 60 to 100 PFU per well. After adsorption for 60 min at 37° C., the inoculum was removed, and culture medium was replaced with agarose-medium overlay containing the tested drug. The following final drug concentrations were used: Artemisone: 0, 0.1, 1, 5, 10, 25, and 50 μM; Artesunate: 0, 1, 5, 10, 25, 50, and 100 μM; Ganciclovir, artemiside, compound IX and RW177: 0, 0.1, 1, 5, 10, 25, and 50 μM. Plates were incubated for 10 days at 37° C. in a 5% CO2 incubator. Plaques were then counted microscopically. The drug concentration required to reduce the number of plaques to 50% of the control value (IC50), was calculated.
(§1) Antiviral activity of artemisone was determined by applying various drug concentrations to a growing virus in cell culture, using a standard plaque reduction assay. Artesunate, a compound known to have significant anti-viral activity, was tested in parallel. Ganciclovir was used as an additional positive control. The IC50 values of at least three separate experiments with each drug and virus were averaged, and the results are reported as mean±standard deviation values. Representative curves of plaque reduction assay for artemisone and artesunate are depicted in FIGS. 2A and 3A, respectively.
Background: Plaques are areas of infected cells; plaque reduction assays count them against a control.

The next data set has as its system HCMV strain TB40/E. Briefly: Antiviral drug susceptibility in ex-vivo HCMV-infected decidual organ cultures (normalized viral DNA). It counts as cell-based, human cytomegalovirus. The note with it: Human betaherpesvirus 5, TB40/E 10^5 PFU/well, 8 dpi, read-out: IC50 (drug concentration required to reduce normalized tissue viral DNA copy number by 50%). As to the method:
For infection of decidual organ cultures, the tissues were placed in 48-well plates (˜5 slices/well to maintain optimal viability) immediately after the sectioning and inoculated with the indicated virus (10^4 plaque forming units/well, unless indicated otherwise) for 12 hours to allow effective viral adsorption. Following viral adsorption, the cultures were washed extensively and further incubated for the duration of the experiment with replacement of the culture medium every 2-3 days.
DNA and RNA were extracted from the samples using the QIAamp DNA Mini Kit extraction kit and RNeasy Mini Kit (QIAGEN, Hilden, Germany) respectively, according to the manufacturer's instructions. The purified DNA samples were subjected to a quantitative real-time PCR reaction on a 7900HT Real Time PCR system (Applied Biosystems, Foster City, Calif., USA), using primers and probes derived from the HCMV glycoprotein B (gB) as described in Boeckh et al., 2004, J. Clin. Microbiol., 42, 1142-1148. […] The purified RNA samples were subjected to reverse transcription using GoScript™ (Promega, Madison, USA), followed by quantitative real-time PCR of the late HCMV R160461 spliced mRNA as described in White et al., 2004, J. Virol., 78, 1817-1830. […]

For data set [2], the system named is CMV. Briefly: CMV antiviral activity in retinal epithelial cells (RPE) culture. Type of data set: cell-based, human cytomegalovirus. On the procedure: as §1
Data set [3] relates to CMV. Briefly: Quantification of viral DNA in infected cells by real-time PCR (CMV gB gene). It counts as cell-based, human cytomegalovirus. To be noted: FIGS. 2B, 3B. As to the method:
Viral DNA quantity in infected cells with and without added drugs (expressed as genome copies/well) was determined by real-time PCR assay, following DNA extraction from cells, with the use of primers and probe derived from the CMV gB gene.
The results of Example 1 were confirmed by quantitation of viral DNA using real-time PCR. […] Representative curves of viral DNA accumulation for artemisone and artesunate are depicted in FIGS. 2B and 3B, respectively.

In data set [4] the test system is human foreskin fibroblasts (HFF) cells. Briefly: Cytotoxicity observed alongside plaque reduction assay. Type of data set: cell-based.
The subject of data set [5] is HCMV strain AD169 pp65 antigen. Briefly: Immunofluorescence assay of viral late (pp65) gene expression. Type of data set: cell-based, human cytomegalovirus. The note with it: 72 hpi; for viral late (pp65) gene expression (in words): 25 μM. On the procedure:
(§2) Human foreskin fibroblasts (HFF) were infected with HCMV strain AD169. At 1 hour post infection (hpi), artemisone (25 μM) or ganciclovir (25 μM) were added to the growth medium, and the cells were further incubated in the presence of the drug, until prepared for immunofluorescence analysis at 24 and 72 hpi—to analyze the expression of IE and pp65, respectively. Control untreated infected cells, and mock-infected cells were analyzed in parallel.
(§3) Cells grown on 8-well glass slides were infected at a multiplicity of infection (moi) of 0.1 PFU/cell. Supernatant was removed at 24 and 72 hpi, and cells were washed 3 times with PBS and fixed with 3.7% formaldehyde for 30 minutes at room temperature. Cells were washed 5 times with PBS+1% NH4Cl, permeabilized by 0.1% TX100 for 5 minutes and washed 5 times with PBS+1% NH4Cl. After 1 hour of blocking using 1% BSA in PBS, the indicated primary monoclonal antibodies (IE1/2 or pp65) were added to the cells in appropriate dilution in 0.5% BSA in PBS and incubated either at room temperature for 2 hours or overnight at 4° C. The secondary antibody was added to the cells in appropriate dilution in PBS containing 0.5% BSA for 30 minutes at room temperature and washed by PBS.
(§4) Following mounting with commercial mounting media, with addition of 4′,6-diamidino-2-phenylindole (DAPI) nuclear stain (yielding nuclear blue stain in all cells), the cells were analyzed by fluorescence microscopy. Results were monitored on at least 3 independent experiments, scoring at least 5 fields (of between 500 and 800 cells each) for each treatment arm.

The conditions of data set [6]: preclinical in vitro and in vivo screens; cited from earlier work.
The subject of another data set is human endothelial cells. The note with it: D'Alessandro et al., 2007; cited from earlier work.
For data set [7] the following is noted: male rats, 50 mg/kg for 14 days; cited from earlier work.
The test system of data set [8] is HCMV strain AD169 IE1/2 antigen. Description: Immunofluorescence assay of viral immediate early (IE1/2) gene expression. To be noted: 24 hpi; for viral IE gene expression (in words): 25 μM. Type of data set: cell-based, human cytomegalovirus. On the procedure: as §2, §3, §4
Where [9] appears, read: Human betaherpesvirus 5, 240 h, read-out: IC50 (drug concentration required to reduce the number of plaques to 50% of control), mean ± standard deviation.
The mark [10] stands for this setting: pp65 antigen, drug 25 μM, HFF, AD169.
[11] abbreviates: IE1 ± IE2 antigen, drug 25 μM, HFF, AD169.

Read-outs that look alike come from different tables or passages of the source. Some results are limits rather than exact numbers.

Turning to `C[C@H]1[C@H](N2CCSCC2)O[C@@H]2O[C@@]3(C)CC[C@H]4[C@H](C)CC[C@@H]1[C@@]24OO3` [artemiside, reference compound], the IC50 in the data set with CMV [1] (setting [9]) was greater than 40000 nM.
For `CC1CCC2[C@@H](C)[C@H](NS(N)(=O)=O)OC3O[C@]4(C)CCC1C32OO4` (stereo partly drawn) [compound IX], in the data set with CMV [1] (Human betaherpesvirus 5, 240 h, at least three separate experiments averaged, 10 days incubation, read-out: IC50 (drug concentration required to reduce the number of plaques to 50% of control), mean ± standard deviation), the IC50 turned out to be 2100 ± 600 nM.
Regarding `Nc1nc2c(ncn2COCCO)c(=O)[nH]1` [acyclovir], in the data set on HCMV strain TB40/E, the IC50 turned out to be 18300 nM.
On to `C[C@H]1[C@H](OC(=O)CCC(=O)O)O[C@@H]2O[C@@]3(C)CC[C@H]4[C@H](C)CC[C@@H]1[C@@]24OO3` [Artesunate, artesunate, reference compound], for which the IC50 worked out at 10800 ± 4200 nM in the data set on CMV [1] (setting [9]) and 15000 nM in the data set with CMV [1] (Human betaherpesvirus 5, read-out: IC50 value for this assay (inhibition of CMV plaque formation, dose response curve)).
Consider `CC1CCC2[C@@H](C)[C@H](N3CCS(=O)(=O)CC3)OC3O[C@]4(C)CCC1C32OO4` (stereo in doubt) [Artemisone], for which the “antiviral activity compared to artesunate” value in the data set on CMV [2] is reported as “Superior antiviral activity”. In the data set on CMV [3], the “antiviral efficacy by quantitation of viral DNA” value is reported as “far superior to that of artesunate”. Moreover, the cytotoxicity result in data set [4] is on record as “no cytotoxicity”. Besides, the IC50 in the data set on CMV [1] (setting [9]) stood at 900 ± 300 nM; in the data set with CMV [1] (Human betaherpesvirus 5, representative curve, FIG. 2A / FIG. 3A, read-out: IC50 value for this assay (inhibition of CMV plaque formation, dose response curve)) it was 1200 nM. The “viral late (pp65) gene expression (in words)” value in data set [5] is recorded as “highly efficient reduction”. Moreover, the “CMV antigen-positive cells (%)” value in data set [5] (setting [10]) and in data set [8] (setting [11]) was 0% throughout. The neurotoxicity result in data set [6] is reported as “does not elicit neurotoxicity”. In addition, the “anti-angiogenic effect compared to dihydroartemisinin” value with human endothelial cells is reported as “significantly less anti-angiogenic than dihydroartemisinin”. Besides, in data set [7], the tolerability entry is listed as “no effect as compared to controls”. The “viral IE gene expression (in words)” value in data set [8] is given as “significant reduction”.
As for `Nc1nc(O)c2ncn(COC(CO)CO)c2n1` [Ganciclovir, ganciclovir], in data set [5], the “viral late (pp65) gene expression (in words)” value is on record as “highly efficient reduction”. Also, in [5] (setting [10]), the “CMV antigen-positive cells (%)” value turned out to be 0.18% and the “CMV antigen-positive cells per field (N)” value turned out to be 1 ± 0.25. The “viral IE gene expression (in words)” value in data set [8] is “did not inhibit IE gene expression”. In addition, in data set [8] (setting [11]), the “CMV antigen-positive cells (%)” value was determined as 5.97% and the “CMV antigen-positive cells per field (N)” value worked out at 33 ± 5. Moreover, the IC50 in the data set on HCMV strain TB40/E worked out at 1500 nM.

These data come from US10111884B2, “Methods and compositions for treating viral infections” (THE HONG KONG UNIVERSITY OF SCIENCE AND TECHNOLOGY, priority 2012, dated 2018).
